These are literature values, as cited in PMC7821949 (Biomolecules, 2020).

This series has as its system α-Bgt.

Regarding “HAP: Combinatorial high-affinity peptide HAP. (WRYYESSLLPYPD)”, the “affinity for α-Bgt” value is 2 to 4 nM.
